Source: PMC10245121, “GH20 and GH84 β-N-acetylglucosaminidases with different linkage specificities underpin mucin O-glycan breakdown capability of Bifidobacterium bifidum” (The Journal of Biological Chemistry, 2023)

What was measured:
BbhV = biological target: T1, BbhV (Bifidobacterium bifidum, UniProt A0ABN5UYD8); assay: initial velocities, p-nitrophenolate release ([…] nm), Michaelis-Menten fit; assay type: biochemical; conditions: 0.1-5.0 mM substrate; McIlvaine buffer, pH optimum 5.5 (pH and temperature of the kinetics not stated)
T1 construct: gene BBBF_1623; residues 35-1111 of 1139 aa, signal peptide and C-terminal TM region removed, C-terminal His6 tag kept; E. coli; 171 kDa by SEC, dimer
T1 sequence (A0ABN5UYD8 entry or part of it): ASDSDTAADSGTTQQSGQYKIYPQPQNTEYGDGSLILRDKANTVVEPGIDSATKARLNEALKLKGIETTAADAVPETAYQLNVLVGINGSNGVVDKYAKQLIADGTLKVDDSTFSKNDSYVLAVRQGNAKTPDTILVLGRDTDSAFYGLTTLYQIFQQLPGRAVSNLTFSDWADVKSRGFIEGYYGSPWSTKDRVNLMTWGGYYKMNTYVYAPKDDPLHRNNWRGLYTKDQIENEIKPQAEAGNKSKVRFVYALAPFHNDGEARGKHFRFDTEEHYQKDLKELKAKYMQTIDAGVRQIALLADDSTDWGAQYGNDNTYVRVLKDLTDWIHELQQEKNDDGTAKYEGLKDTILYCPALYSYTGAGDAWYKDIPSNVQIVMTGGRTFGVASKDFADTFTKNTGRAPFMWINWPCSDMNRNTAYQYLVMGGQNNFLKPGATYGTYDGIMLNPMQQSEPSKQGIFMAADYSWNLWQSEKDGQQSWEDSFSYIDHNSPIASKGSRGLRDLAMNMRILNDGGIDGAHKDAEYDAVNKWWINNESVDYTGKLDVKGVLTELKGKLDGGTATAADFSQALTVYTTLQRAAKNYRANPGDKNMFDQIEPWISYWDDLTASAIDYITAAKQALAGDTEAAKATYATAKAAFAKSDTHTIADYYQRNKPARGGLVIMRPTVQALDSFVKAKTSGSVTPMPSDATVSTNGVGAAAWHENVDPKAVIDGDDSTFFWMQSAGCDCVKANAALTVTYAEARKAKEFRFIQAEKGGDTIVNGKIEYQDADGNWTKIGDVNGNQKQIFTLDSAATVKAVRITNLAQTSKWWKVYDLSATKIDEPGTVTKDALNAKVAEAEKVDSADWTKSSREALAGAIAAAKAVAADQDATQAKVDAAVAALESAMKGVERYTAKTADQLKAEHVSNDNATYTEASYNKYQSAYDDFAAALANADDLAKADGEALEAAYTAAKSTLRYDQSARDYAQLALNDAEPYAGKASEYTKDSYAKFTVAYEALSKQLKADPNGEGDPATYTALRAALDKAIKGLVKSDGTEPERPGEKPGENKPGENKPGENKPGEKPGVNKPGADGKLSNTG

[1] = biological target: BbhV (GH84 β-N-acetylglucosaminidase of Bifidobacterium bifidum JCM 1254), residues 35-1111, C-terminal His6 (Bifidobacterium bifidum JCM 1254); assay: SEC; Superdex 200 Increase 10/300 GL; 10 mM Tris-HCl pH 8.0, 150 mM NaCl; native mass estimated against thyroglobulin, ferritin, aldolase and conalbumin standards

Km (BbhV) [µM]	stoichiometry N [1]	Compound
1000	–	CC(=O)N[C@H]1[C@H](Oc2ccc([N+](=O)[O-])cc2)O[C@H](CO)[C@@H](O)[C@@H]1O [GlcNAcβ-pNP]
–	2	BbhV (GH84 β-N-acetylglucosaminidase of Bifidobacterium bifidum JCM 1254), residues 35-1111, C-terminal His6 (enzyme)
